pKi: −log10 of the molar value.
Key:
[1] = system: C-X-C chemokine receptor type 4 (Homo sapiens), P61073 [A175F]; test: (§1) Antagonist activity at human CXCR4 A175F mutant expressed in COS7 cells coexpressing G protein Gqi4myr assessed as inhibition of CXCL12-induced phosphatidylinositol turnover; assay type: functional, cell-based; conditions: COS-7
[2] = biological target: C-X-C chemokine receptor type 4 (Homo sapiens, UniProt P61073, A175F); test: as §1; assay type: functional, cell-based, COS-7
[3] = biological target: C-X-C chemokine receptor type 4 (Homo sapiens, UniProt P61073, D171N); test: (§2) Antagonist activity at human CXCR4 D171N mutant expressed in COS7 cells coexpressing G protein Gqi4myr assessed as inhibition of CXCL12-induced phosphatidylinositol turnover; assay type: functional, cell-based, COS-7
[4] = system: C-X-C chemokine receptor type 4 (Homo sapiens), P61073 [D171N]; test: as §2; assay type: functional, cell-based; conditions: COS-7
[5] = system: C-X-C chemokine receptor type 4 (Homo sapiens), P61073 [D262N]; test: (§3) Antagonist activity at human CXCR4 D262N mutant expressed in COS7 cells coexpressing G protein Gqi4myr assessed as inhibition of CXCL12-induced phosphatidylinositol turnover; assay type: functional, cell-based; conditions: COS-7
[6] = biological target: C-X-C chemokine receptor type 4 (Homo sapiens, UniProt P61073, D262N); test: as §3; assay type: functional, cell-based, COS-7
[7] = biological target: C-X-C chemokine receptor type 4 (Homo sapiens, UniProt P61073, I284A); test: (§4) Antagonist activity at human CXCR4 I284A mutant expressed in COS7 cells coexpressing G protein Gqi4myr assessed as inhibition of CXCL12-induced phosphatidylinositol turnover; assay type: functional, cell-based, COS-7
[8] = system: C-X-C chemokine receptor type 4 (Homo sapiens), P61073 [I284A]; test: as §4; assay type: functional, cell-based; conditions: COS-7
[9] = biological target: C-X-C chemokine receptor type 4 (Homo sapiens, UniProt P61073, H203A); test: (§5) Antagonist activity at human CXCR4 H203A mutant expressed in COS7 cells coexpressing G protein Gqi4myr assessed as inhibition of CXCL12-induced phosphatidylinositol turnover; assay type: functional, cell-based, COS-7
[10] = system: C-X-C chemokine receptor type 4 (Homo sapiens), P61073 [H203A]; test: as §5; assay type: functional, cell-based; conditions: COS-7
[11] = biological target: C-X-C chemokine receptor type 4 (Homo sapiens, UniProt P61073, F172A); test: (§6) Antagonist activity at human CXCR4 F172A mutant expressed in COS7 cells coexpressing G protein Gqi4myr assessed as inhibition of CXCL12-induced phosphatidylinositol turnover; assay type: functional, cell-based, COS-7
[12] = system: C-X-C chemokine receptor type 4 (Homo sapiens), P61073 [F172A]; test: as §6; assay type: functional, cell-based; conditions: COS-7
[13] = system: C-X-C chemokine receptor type 4 (Homo sapiens), P61073 [T287A]; test: (§7) Antagonist activity at human CXCR4 T287A mutant expressed in COS7 cells coexpressing G protein Gqi4myr assessed as inhibition of CXCL12-induced phosphatidylinositol turnover; assay type: functional, cell-based; conditions: COS-7
[14] = biological target: C-X-C chemokine receptor type 4 (Homo sapiens, UniProt P61073, T287A); test: as §7; assay type: functional, cell-based, COS-7
[15] = biological target: C-X-C chemokine receptor type 4 (Homo sapiens, UniProt P61073); test: Antagonist activity at human wild type CXCR4 expressed in COS7 cells coexpressing G protein Gqi4myr assessed as inhibition of CXCL12-induced phosphatidylinositol turnover; assay type: functional, cell-based, COS-7
[16] = system: C-X-C chemokine receptor type 4 (Homo sapiens), P61073 [I259W]; test: (§8) Antagonist activity at human CXCR4 I259W mutant expressed in COS7 cells coexpressing G protein Gqi4myr assessed as inhibition of CXCL12-induced phosphatidylinositol turnover; assay type: functional, cell-based; conditions: COS-7
[17] = biological target: C-X-C chemokine receptor type 4 (Homo sapiens, UniProt P61073, I259W); test: as §8; assay type: functional, cell-based, COS-7
[18] = system: C-X-C chemokine receptor type 4 (Homo sapiens), P61073 [I259A]; test: (§9) Antagonist activity at transmembrane domain 6 of human CXCR4 I259A mutant expressed in COS7 cells coexpressing G protein Gqi4myr assessed as inhibition of CXCL12-induced phosphatidylinositol turnover; assay type: functional, cell-based; conditions: COS-7
[19] = biological target: C-X-C chemokine receptor type 4 (Homo sapiens, UniProt P61073, I259A); test: as §9; assay type: functional, cell-based, COS-7
[20] = system: C-X-C chemokine receptor type 4 (Homo sapiens), P61073 [Y255A]; test: (§10) Antagonist activity at human CXCR4 Y255A mutant expressed in COS7 cells coexpressing G protein Gqi4myr assessed as inhibition of CXCL12-induced phosphatidylinositol turnover; assay type: functional, cell-based; conditions: COS-7
[21] = biological target: C-X-C chemokine receptor type 4 (Homo sapiens, UniProt P61073, Y255A); test: as §10; assay type: functional, cell-based, COS-7
[22] = biological target: C-X-C chemokine receptor type 4 (Homo sapiens, UniProt P61073, V196A); test: (§11) Antagonist activity at human CXCR4 V196A mutant expressed in COS7 cells coexpressing G protein Gqi4myr assessed as inhibition of CXCL12-induced phosphatidylinositol turnover; assay type: functional, cell-based, COS-7
[23] = system: C-X-C chemokine receptor type 4 (Homo sapiens), P61073 [V196A]; test: as §11; assay type: functional, cell-based; conditions: COS-7
[24] = biological target: C-X-C chemokine receptor type 4 (Homo sapiens, UniProt P61073, Q200W); test: (§12) Antagonist activity at human CXCR4 Q200W mutant expressed in COS7 cells coexpressing G protein Gqi4myr assessed as inhibition of CXCL12-induced phosphatidylinositol turnover; assay type: functional, cell-based, COS-7
[25] = system: C-X-C chemokine receptor type 4 (Homo sapiens), P61073 [Q200W]; test: as §12; assay type: functional, cell-based; conditions: COS-7
[26] = system: C-X-C chemokine receptor type 4 (Homo sapiens), P61073 [E288A]; test: (§13) Antagonist activity at human CXCR4 E288A mutant expressed in COS7 cells coexpressing G protein Gqi4myr assessed as inhibition of CXCL12-induced phosphatidylinositol turnover; assay type: functional, cell-based; conditions: COS-7
[27] = biological target: C-X-C chemokine receptor type 4 (Homo sapiens, UniProt P61073, E288A); test: as §13; assay type: functional, cell-based, COS-7
[28] = system: C-X-C chemokine receptor type 4 (Homo sapiens), P61073 [H281A]; test: (§14) Antagonist activity at human CXCR4 H281A mutant expressed in COS7 cells coexpressing G protein Gqi4myr assessed as inhibition of CXCL12-induced phosphatidylinositol turnover; assay type: functional, cell-based; conditions: COS-7
[29] = biological target: C-X-C chemokine receptor type 4 (Homo sapiens, UniProt P61073, H281A); test: as §14; assay type: functional, cell-based, COS-7
[30] = system: C-X-C chemokine receptor type 4 (Homo sapiens), P61073 [Q200A]; test: (§15) Antagonist activity at human CXCR4 Q200A mutant expressed in COS7 cells coexpressing G protein Gqi4myr assessed as inhibition of CXCL12-induced phosphatidylinositol turnover; assay type: functional, cell-based; conditions: COS-7
[31] = biological target: C-X-C chemokine receptor type 4 (Homo sapiens, UniProt P61073, Q200A); test: as §15; assay type: functional, cell-based, COS-7
[32] = biological target: C-X-C chemokine receptor type 4 (Homo sapiens, UniProt P61073, L120F); test: (§16) Antagonist activity at human CXCR4 L120F mutant expressed in COS7 cells coexpressing G protein Gqi4myr assessed as inhibition of CXCL12-induced phosphatidylinositol turnover; assay type: functional, cell-based, COS-7
[33] = system: C-X-C chemokine receptor type 4 (Homo sapiens), P61073 [L120F]; test: as §16; assay type: functional, cell-based; conditions: COS-7
[34] = biological target: C-X-C chemokine receptor type 4 (Homo sapiens, UniProt P61073, H113A); test: (§17) Antagonist activity at human CXCR4 H113A mutant expressed in COS7 cells coexpressing G protein Gqi4myr assessed as inhibition of CXCL12-induced phosphatidylinositol turnover; assay type: functional, cell-based, COS-7
[35] = system: C-X-C chemokine receptor type 4 (Homo sapiens), P61073 [H113A]; test: as §17; assay type: functional, cell-based; conditions: COS-7

C-X-C chemokine receptor type 4 (Homo sapiens, UniProt P61073), sequence (P61073 whole entry): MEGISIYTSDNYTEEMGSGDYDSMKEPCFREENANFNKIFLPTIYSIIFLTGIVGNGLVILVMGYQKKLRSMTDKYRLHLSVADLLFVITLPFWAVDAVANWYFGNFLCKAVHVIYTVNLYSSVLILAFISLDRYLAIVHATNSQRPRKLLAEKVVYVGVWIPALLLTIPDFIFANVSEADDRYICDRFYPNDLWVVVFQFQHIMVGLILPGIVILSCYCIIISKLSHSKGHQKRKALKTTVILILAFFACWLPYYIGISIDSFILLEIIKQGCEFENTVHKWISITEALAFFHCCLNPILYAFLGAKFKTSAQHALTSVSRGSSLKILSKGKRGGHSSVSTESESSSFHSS
C-X-C chemokine receptor type 4 (Homo sapiens), P61073 [E288A], sequence (P61073 whole entry E288A): as the sequence (P61073 whole entry) above, with E288A counted along it
C-X-C chemokine receptor type 4 (Homo sapiens, UniProt P61073, E288A), sequence (P61073 whole entry E288A): as the sequence (P61073 whole entry) above, with E288A counted along it
C-X-C chemokine receptor type 4 (Homo sapiens, UniProt P61073, Y255A), sequence (P61073 whole entry Y255A): as the sequence (P61073 whole entry) above, with Y255A counted along it
C-X-C chemokine receptor type 4 (Homo sapiens), P61073 [Y255A], sequence (P61073 whole entry Y255A): as the sequence (P61073 whole entry) above, with Y255A counted along it
C-X-C chemokine receptor type 4 (Homo sapiens, UniProt P61073, F172A), sequence (P61073 whole entry F172A): as the sequence (P61073 whole entry) above, with F172A counted along it
C-X-C chemokine receptor type 4 (Homo sapiens), P61073 [F172A], sequence (P61073 whole entry F172A): as the sequence (P61073 whole entry) above, with F172A counted along it
C-X-C chemokine receptor type 4 (Homo sapiens, UniProt P61073, Q200A), sequence (P61073 whole entry Q200A): as the sequence (P61073 whole entry) above, with Q200A counted along it
C-X-C chemokine receptor type 4 (Homo sapiens), P61073 [Q200A], sequence (P61073 whole entry Q200A): as the sequence (P61073 whole entry) above, with Q200A counted along it
C-X-C chemokine receptor type 4 (Homo sapiens), P61073 [V196A], sequence (P61073 whole entry V196A): as the sequence (P61073 whole entry) above, with V196A counted along it
C-X-C chemokine receptor type 4 (Homo sapiens, UniProt P61073, V196A), sequence (P61073 whole entry V196A): as the sequence (P61073 whole entry) above, with V196A counted along it
C-X-C chemokine receptor type 4 (Homo sapiens, UniProt P61073, I259W), sequence (P61073 whole entry I259W, the tested form may be a part): as the sequence (P61073 whole entry) above, with I259W counted along it
C-X-C chemokine receptor type 4 (Homo sapiens), P61073 [I259W], sequence (P61073 whole entry I259W): as the sequence (P61073 whole entry) above, with I259W counted along it

Cc1ccc(CN2CCCNCCNCCCNCC2)cc1
logIC50 [1]: -2.65
pKi [2]: 2.65
pKi [3]: 3.97
logIC50 [4]: -3.97
logIC50 [5]: -5.54
pKi [6]: 5.54
pKi [7]: 5.64
logIC50 [8]: -5.64
pKi [9]: 4.49
logIC50 [10]: -4.5
pKi [11]: 4.82
logIC50 [12]: -4.82
logIC50 [13]: -5.49
pKi [14]: 5.48
pKi [15]: 4.70
logIC50 ([15]; COS-7): -4.69
logIC50 [16]: -4.62
pKi [17]: 4.62
logIC50 [18]: -5.6
pKi [19]: 5.60
logIC50 [20]: -4.43
pKi [21]: 4.43
pKi [22]: 4.55
logIC50 [23]: -4.56
pKi [24]: 4.22
logIC50 [25]: -4.22
logIC50 [26]: -3.52
pKi [27]: 3.52
logIC50 [28]: -4.66
pKi [29]: 4.66
logIC50 [30]: -4.1
pKi [31]: 4.10
pKi [32]: 4.89
logIC50 [33]: -4.87
pKi [34]: 3.56
logIC50 [35]: -3.56

Reference: ChEMBL document CHEMBL1156482, “Molecular mechanism of action of monocyclam versus bicyclam non-peptide antagonists in the CXCR4 chemokine receptor” (J Biol Chem, 2007)
